# From ChEMBL document CHEMBL1201862, “PubChem BioAssay data set” (2004)
# Active and inactive are the calls of the source. Non-standard residues stand in square brackets, D forms with d. Residues, ends and D or L forms follow the SMILES beside them. ξ: configuration not given here. *: point of attachment. X18 = COC1=CC(=O)N(C(=O)C(O*)C(C)C)C1Cc1ccccc1; ξNMe2Val = CC(C)C(C(=O)*)N(C)C; NMeV = CN[CH](C(=O)O)C(C)C
# Tests used:
# [1] = cytotoxicity toward DRD oncogenic fibroblasts, dose response, cell-based, non-viral oncogenic, luminescence (AID 1934); format: functional; details: Homo sapiens
# Vero [2] = experiment: cells; format: functional, cell-based; details: Chlorocebus sabaeus
# Vero [3] = experiment: cells; format: functional; details: Chlorocebus sabaeus
# BJ [4] = experiment: cytotoxicity toward BJ-TERT-LT-ST fibroblasts, dose response, cell-based, RAS-independent, luminescence (AID 1935); format: functional; details: Homo sapiens;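 further: BJ fibroblasts immortalized with TERT plus LT and ST oncogenes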
# cells [5] = experiment: cells
# [6] = HEp-2 cell cytotoxicity, dose response, cytotoxicity control for RSV inhibitor project, HTS (AID 2410); format: functional; details: human respiratory syncytial virus
# BJ [7] = experiment: cells; format: functional, cell-based; details: Homo sapiens
# BJ [8] = experiment: cytotoxicity toward BJ-TERT fibroblasts, dose response, cell-based, RAS-independent, luminescence (AID 1933); format: functional; details: Homo sapiens
# [9] = target: T1, Polyadenylate-binding protein 1 (Homo sapiens, UniProt P11940); experiment: PABP1 MLLE–PAM2 binding inhibitor potency, dose response, biochemical, fluorescence polarization, FITC-PAM2 peptide (AID 602259); format: functional; details: read-out: IC50_Mean
# T1 sequence (P11940 whole entry): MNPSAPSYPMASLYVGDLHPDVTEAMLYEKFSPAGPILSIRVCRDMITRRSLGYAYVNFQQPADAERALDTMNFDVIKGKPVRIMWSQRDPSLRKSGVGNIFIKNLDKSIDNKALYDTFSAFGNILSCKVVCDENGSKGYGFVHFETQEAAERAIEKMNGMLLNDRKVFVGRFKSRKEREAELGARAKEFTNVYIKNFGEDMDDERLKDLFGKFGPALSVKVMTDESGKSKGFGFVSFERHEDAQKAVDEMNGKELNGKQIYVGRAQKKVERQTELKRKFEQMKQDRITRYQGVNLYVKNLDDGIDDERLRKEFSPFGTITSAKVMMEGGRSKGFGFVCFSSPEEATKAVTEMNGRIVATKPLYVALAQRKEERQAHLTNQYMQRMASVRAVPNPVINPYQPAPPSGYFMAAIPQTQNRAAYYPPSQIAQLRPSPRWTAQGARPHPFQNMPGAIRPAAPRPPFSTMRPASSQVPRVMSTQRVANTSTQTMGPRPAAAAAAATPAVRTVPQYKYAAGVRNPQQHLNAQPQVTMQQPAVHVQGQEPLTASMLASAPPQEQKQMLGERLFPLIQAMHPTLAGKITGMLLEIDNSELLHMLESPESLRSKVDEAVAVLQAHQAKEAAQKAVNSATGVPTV
# [10] = target: T1, Polyadenylate-binding protein 1; experiment: PABP1 MLLE–PAM2 interaction inhibitors, dose response, miRNA deadenylation inhibitor project, biochemical, fluorescence polarization, Cy5-PAM2 peptide, secondary (AID 602260); format: functional; details: read-out: IC50_Mean
# [11] = target: Glucose-6-phosphate 1-dehydrogenase (Homo sapiens, UniProt P11413); experiment: human G6PD enzyme inhibitors, dose response, selectivity assay for P. falciparum G6PD inhibitor project, biochemical, fluorescence (AID 504792); format: functional
# Sequence of Glucose-6-phosphate 1-dehydrogenase (P11413 whole entry): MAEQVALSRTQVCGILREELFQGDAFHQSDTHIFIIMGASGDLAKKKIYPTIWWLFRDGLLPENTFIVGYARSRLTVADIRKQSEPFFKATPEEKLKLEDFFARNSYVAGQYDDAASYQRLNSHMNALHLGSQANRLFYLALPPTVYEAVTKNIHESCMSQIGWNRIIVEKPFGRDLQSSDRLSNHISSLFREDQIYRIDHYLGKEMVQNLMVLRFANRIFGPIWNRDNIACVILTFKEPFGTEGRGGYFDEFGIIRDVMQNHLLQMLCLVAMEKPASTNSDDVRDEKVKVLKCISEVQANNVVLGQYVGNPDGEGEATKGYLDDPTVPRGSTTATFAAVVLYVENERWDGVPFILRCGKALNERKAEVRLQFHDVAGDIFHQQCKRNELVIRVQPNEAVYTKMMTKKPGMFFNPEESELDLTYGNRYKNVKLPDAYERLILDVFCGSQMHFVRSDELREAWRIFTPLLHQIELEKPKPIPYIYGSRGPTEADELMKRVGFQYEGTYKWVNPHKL
# Genome polyprotein = Genome polyprotein (dengue virus type 2, UniProt P29990); experiment: Dengue-2 NS5 methyltransferase inhibitors, primary screen, biochemical, confirmation dose response (AID 588689); format: functional
# Sequence of Genome polyprotein (P29990 2492-3391 limits assumed): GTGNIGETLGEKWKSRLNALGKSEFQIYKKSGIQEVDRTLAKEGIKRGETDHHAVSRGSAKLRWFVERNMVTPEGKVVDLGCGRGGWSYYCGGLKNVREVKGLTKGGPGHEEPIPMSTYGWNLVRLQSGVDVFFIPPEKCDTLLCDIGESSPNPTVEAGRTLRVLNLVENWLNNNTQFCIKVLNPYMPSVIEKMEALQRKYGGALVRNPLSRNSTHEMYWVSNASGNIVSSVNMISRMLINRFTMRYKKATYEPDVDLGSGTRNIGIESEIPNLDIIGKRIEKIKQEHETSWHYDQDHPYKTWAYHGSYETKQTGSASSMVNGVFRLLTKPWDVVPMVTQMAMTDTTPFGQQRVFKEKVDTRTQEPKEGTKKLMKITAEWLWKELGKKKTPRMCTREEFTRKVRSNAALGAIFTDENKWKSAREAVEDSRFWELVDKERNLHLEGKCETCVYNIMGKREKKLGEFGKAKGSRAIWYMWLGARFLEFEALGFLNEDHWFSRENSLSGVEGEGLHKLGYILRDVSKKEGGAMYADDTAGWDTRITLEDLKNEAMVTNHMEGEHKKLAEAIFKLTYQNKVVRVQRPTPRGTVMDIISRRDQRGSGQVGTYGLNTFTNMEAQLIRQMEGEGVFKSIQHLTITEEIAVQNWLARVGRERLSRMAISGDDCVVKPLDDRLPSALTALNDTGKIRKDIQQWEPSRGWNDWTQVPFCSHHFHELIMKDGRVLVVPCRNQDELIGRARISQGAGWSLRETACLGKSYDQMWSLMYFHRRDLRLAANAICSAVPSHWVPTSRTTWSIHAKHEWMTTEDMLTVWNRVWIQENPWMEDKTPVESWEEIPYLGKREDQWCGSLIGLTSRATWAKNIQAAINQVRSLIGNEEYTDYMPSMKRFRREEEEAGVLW
# [12] = ZM109 Env clade C HIV-1 fusion inhibitors, dose response, HeLa effector, CEM target cells, luciferase, cherry-pick (AID 652058); format: functional, cell-based
# [13] = inhibitors of HIV Env-driven cell fusion, dose response, cherry-pick (AID 652057); format: functional, cell-based
# [14] = off-target signal loss in HeLa-CEM21 co-culture – HeLa F-luc CTL cells, cherry-picked, counter-screen for HIV-1 Env fusion inhibitor project, dose response (AID 652040); format: functional, cell-based;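 further: potency for signal decrease marking cytotoxic or nonspecific inhibition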
# [15] = CEM21 lymphoblast cell cytotoxicity, dose response, cytotoxicity control for viral fusion inhibitor project, CellTiter-Glo luminescence, cherry-picked (AID 652042); format: functional, cell-based;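 further: potency for signal decrease meaning cytotoxicity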
# Escherichia coli = experiment: microbe, parasite or virus in culture
# P388 = experiment: cells; format: functional; details: Mus musculus
# SN12K1 = experiment: cells; format: functional; details: Homo sapiens
# P388/ADR = experiment: cells; format: functional; details: Mus musculus
# [16] = Shn3 3'UTR reporter inhibitors, dose response, cell-based, Clone20 osteoblasts, firefly luciferase, cherry-picked (AID 624132); format: functional;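 further: firefly luciferase luminescence from reporter carrying the Shn3 3'UTR in osteoblasts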
# [17] = control 3'UTR Renilla luciferase suppression, dose response, counter-screen for Shn3 inhibitor project, cell-based, Clone20-Shn3RL, cherry-picked (AID 624133); format: functional
# [18] = HepG2 cell cytotoxicity, dose response, cytotoxicity control for Shn3 inhibitor project, CellTiter-Glo, cherry-picked (AID 624134); format: functional, cell-based
# [19] = A549 cell cytotoxicity, dose response, cytotoxicity control, plate reader, cherry-pick, antagonist series (AID 743412); format: functional, cell-based
# [20] = HepG2 cell cytotoxicity, dose response, cytotoxicity control, plate reader, cherry-pick, antagonist series (AID 743416); format: functional, cell-based
# [21] = LGR2 antagonists, dose response, cell-based, HEK293, CRE-luciferase reporter, cherry pick, set 2 (AID 743343); format: functional;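 further: transfected cells were stimulated with diluted bursicon conditioned medium after compound addition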
# [22] = MC4R antagonists, dose response, counter-screen for LGR2 antagonist project, cell-based, plate reader, cherry pick (AID 743444); format: functional;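 further: transfected HEK 293 cells stimulated with alpha-MSH peptide; potency of inhibitors of the alpha-MSH evoked signal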
# [23] = HEK293 cell cytotoxicity, dose response, cytotoxicity control, plate reader, cherry-picked samples (AID 743446); format: functional, cell-based
# [24] = intracellular Trypanosoma cruzi inhibitors in host cells – cell-based, plate reader, cherry-pick samples, set 3, dose response (AID 651818); format: functional;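 further: compounds incubated with infected cells for about four days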
# [25] = cytotoxicity in OVCAR8 ovarian cancer cells, dose response, PAX8 project, cell-based, plate reader, dry powder samples (AID 743197); format: functional; details: OVCAR-8
# Paired box protein Pax-8 = Paired box protein Pax-8 (Homo sapiens, UniProt Q06710); experiment: inhibitors of PAX8-driven TPO luciferase reporter, dose response, RMG-I cells, cherry-pick (AID 687027); format: functional, cell-based;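 further: luciferase reporter driven by Pax8 target thyroperoxidase promoter measured by SteadyGlo luminescence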
# Sequence of Paired box protein Pax-8 (Q06710 whole entry, the tested form may be a part): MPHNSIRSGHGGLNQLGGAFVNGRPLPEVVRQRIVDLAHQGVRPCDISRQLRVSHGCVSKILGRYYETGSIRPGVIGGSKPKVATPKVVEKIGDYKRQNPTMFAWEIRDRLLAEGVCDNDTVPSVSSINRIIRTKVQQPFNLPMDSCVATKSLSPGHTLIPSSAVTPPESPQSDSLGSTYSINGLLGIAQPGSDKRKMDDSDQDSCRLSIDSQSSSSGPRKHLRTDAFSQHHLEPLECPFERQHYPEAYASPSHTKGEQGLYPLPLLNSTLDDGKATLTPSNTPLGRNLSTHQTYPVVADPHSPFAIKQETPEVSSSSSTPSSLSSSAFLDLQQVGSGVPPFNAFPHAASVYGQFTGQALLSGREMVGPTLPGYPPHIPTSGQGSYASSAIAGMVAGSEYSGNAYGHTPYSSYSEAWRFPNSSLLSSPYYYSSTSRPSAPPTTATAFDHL
# [26] = inhibitors of clade B AD8 Env fusion, dose response, cell-based, cherry-pick (AID 652062); format: functional;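 further: luciferase signal from cell-cell fusion driven by HIV-1 clade B AD8 Env; potency is for inhibitors of fusion seen as a drop in luminescence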
# cells [27] = format: functional
smiles,measurement,setting,value
Cc1ccc(-n2c(SCC(=O)Nc3ncc(Cl)cc3Cl)nc3ccccc32)cc1,EC50,[1],30.6 µM (inconclusive)
same,IC50,Vero [2],0.72 µM (active)
same,CC50,Vero [3],> 25 µM (active)
same,EC50,BJ [4],> 150 µM (not active)
same,IC50,cells [5],1.1 µM (active)
same,CC50,[6],2.33 µM (active)
same,EC50,BJ [7],64.6 µM (active)
same,EC50,BJ [8],115 µM (active)
CC1CN(C(=S)c2cccc([N+](=O)[O-])c2)CC(C)O1 (centres undefined),IC50,[9],> 66 µM (inactive)
same,IC50,[10],> 66 µM (inactive)
Cc1cc(O)c(C(C)C)cc1N=Cc1ccccc1[N+](=O)[O-],IC50,[11],> 80 µM (inactive)
same,IC50,Genome polyprotein,> 100 µM (active)
NC(Cc1ccc(F)cc1)c1csc(Nc2ccc(C(F)(F)F)cn2)n1 (centres undefined),AC50,[12],7.7 µM (active)
same,AC50,[13],10 µM (active)
same,AC50,[14],9.07 µM (active)
same,AC50,[15],9.3 µM (active)
COc1cc(SC)ccc1C(=O)OCC(=O)NC(=O)NC(C)C,AC50,Escherichia coli,28.2 µM (active)
CC1C(=O)OC2CC[N+]3(CC(=O)c4ccc(Br)cc4)CC=C(COC(=O)C(C)(O)C1(C)O)C23 (centres undefined),GI50,P388,> 174 µM (inactive)
same,GI50,SN12K1,> 375 µM (inactive)
same,GI50,P388/ADR,> 375 µM (inactive)
Nc1nc(=O)[nH][nH]1,GI50,P388,> 100 µM (inactive)
same,GI50,SN12K1,> 100 µM (inactive)
same,GI50,P388/ADR,> 100 µM (inactive)
N[C@H](C(=O)O)[C@H]1ON=C(Cl)[C@@H]1O,GI50,P388,2.17 µM (inactive)
same,GI50,SN12K1,1.07 µM (active)
same,GI50,P388/ADR,2.23 µM (inactive)
COc1cccc(CN(C)C(=O)c2cccc(S(=O)(=O)N3CCN(c4ccccc4)CC3)c2)c1,AC50,[16],64.1 µM (active)
same,AC50,[17],12.2 µM (active)
same,AC50,[18],> 70 µM (inactive)
O=C1NC(=O)C2(CCc3ccc(N(CCCl)CCCl)cc32)N1 (centres undefined),GI50,P388,1.35 µM (inactive)
same,GI50,SN12K1,15 µM (inactive)
same,GI50,P388/ADR,2.1 µM (inactive)
CSCCC(c1nnnn1-c1c(C)cccc1C)N1CCC(n2c(O)nc3ccccc32)CC1 (centres undefined),AC50,[19],18.3 µM (active)
same,AC50,[20],36.5 µM (active)
same,AC50,[21],16.5 µM (active)
same,AC50,[22],20.5 µM (active)
same,AC50,[23],22.4 µM (active)
C[C@@H]1CN([C@H](C)CO)C(=O)c2cccc(NC(=O)Nc3ccc(C(F)(F)F)cc3)c2O[C@H]1CN(C)Cc1ccc2c(c1)OCO2,AC50,[24],1.82 µM (active)
C[C@H](CO)N1C[C@H](C)[C@H](CN(C)Cc2ccc(C(=O)Nc3ccccc3N)cc2)Oc2ccc(NC(=O)Nc3ccc4c(c3)OCO4)cc2C1=O,AC50,[24],3.55 µM (active)
CCCNC(=O)Nc1ccc2c(c1)OC[C@H](C)N(Cc1ccc(-c3ccccn3)cc1)C[C@@H](C)[C@@H](OC)CN(C)C2=O,AC50,[25],> 70 µM (inactive)
same,AC50,Paired box protein Pax-8,32.9 µM (active)
CCOC1=C2[C@H](c3ccccc3)N(S(=O)(=O)c3ccc(C)cc3)[C@H](C(C)C)[C@H]2C(C#N)(C#N)C(C#N)(C#N)C1,AC50,[12],2.05 µM (active)
same,AC50,[13],0.734 µM (active)
same,AC50,[14],1.7 µM (active)
same,AC50,[26],3.08 µM (active)
same,AC50,[15],6.07 µM (active)
CC1C(O)[C@@]2(OC[C@@]34C(=O)CC5(O)[C@H](CCC6Cc7nc8c(nc7C[C@]65C)CC5CC[C@@H]6C7=C[C@H]9O[C@@]%10(O[C@@](C)(CO)C[C@@H]%10O)C(C)[C@@]9(O)[C@]7(C)[C@@H](O)CC6[C@]5(C)C8)C3=CC[C@H]4C2C)OC1(C)C (some centres undefined),GI50,P388,< 0.000355 µM (active)
same,GI50,SN12K1,> 3.55 µM (inactive)
same,GI50,P388/ADR,0.00203 µM (active)
Nc1ccn(C2OC(CO)C(O)C2F)c(=O)n1 (centres undefined),AC50,[12],6.52 µM (active)
same,AC50,[13],16.3 µM (active)
same,AC50,[14],> 70 µM (inactive)
same,AC50,[26],2.98 µM (active)
same,AC50,[15],33.2 µM (active)
CC(=O)N1CCN(c2cc3c(cc2F)c(=O)c(C(=O)O)cn3C2CC2)CC1,IC50,cells [27],2.11 µM (active)
same,AC50,Escherichia coli,1.06 µM (active)
COC1=CC(=O)N(C(=O)C(OC(=O)C2CCCN2C(=O)C2CCCN2C(=O)C(C(C)C)N(C)C(=O)C(NC(=O)C(C(C)C)N(C)C)C(C)C)C(C)C)C1Cc1ccccc1 (centres undefined) (ξNMe2Val-V[NMeV]PP-X18; configuration not given here),GI50,P388,0.0004 µM (active)
same,GI50,SN12K1,0.0004 µM (active)
same,GI50,P388/ADR,0.00748 µM (active)
